{"source": "paper PMC8298232", "about": "(Archives of Toxicology, 2021)", "key": {"[1]": {"assay": "Kinetics of UV 328 and its metabolites in blood after single oral exposure of volunteers", "type": "in vivo, human", "description": "Furthermore, blood samples were drawn from each volunteer 2, 4, 6, 8, 10, 24, […] 48 h after exposure. In summary, […] blood samples were collected from every volunteer. One volunteer donated two EDTA—Monovettes® (Sarstedt, Nümbrecht, Germany) for every time point. So, for every sampling time one sample was kept as whole blood while the plasma fraction was extracted for the other. In this case, the respective blood vessels were centrifuged at 800 × g for 5 min. The supernatants were transferred to 15 mL conical plastic tubes (Sarstedt, Nümbrecht, Germany). Both blood and plasma samples were stored frozen at − 50 °C until analysis.\nAnalysis of blood samples was performed according to a previously published method (Denghel and Göen [2021]). In summary, blood proteins and cellular components were precipitated by the addition of ACN. Afterwards, the supernatant was diluted with sodium chloride solution and the investigated analytes were extracted by dispersive liquid–liquid microextraction (DLLME) using a mixture of CH2Cl2 and ACN. […] Variation coefficients ranged from 2 to 9% for precision in series and from 3 to 11% for interday precision. Additionally, relative recovery rates between 80 and 100% were found.\nThe ln-transformed mean excretion curve was plotted against the time (in h) to obtain the slope (kel, elimination rate constant) and the excretion half-life (t1/2) as follows: t1/2=ln2/|kel|."}, "[2]": {"assay": "Renal elimination kinetics of UV 328 and its metabolites in urine after single oral exposure", "conditions": "n = 3", "description": "Three volunteers (two men and one person, mean age 37.3 ± 15.5, mean body weight 81.3 ± 6.1 kg) were selected for the in vivo study. Prior to oral exposure, every volunteer collected one urine sample. Additionally, one blood sample was taken using EDTA-Monovettes® (Sarstedt, Nümbrecht, Germany) before exposure. […] Thereby, a safety factor of 100 was considered for single application and interspecies differences, resulting in a dose of 0.3 mg/kg bw. […] Participants collected the total urine volume of each void separately throughout 72 h and recorded the respective sampling times. […] The urine samples were volumetrically measured for each sampling point, aliquoted in urine Monovettes® (Sarstedt, Nümbrecht, Germany) and stored frozen at − 50 °C until analysis.\nThe urine samples were processed according to a previously published procedure (Denghel and Göen [2020]). In brief, urine samples were enzymatically hydrolyzed using β-glucuronidase/arylsulfatase from Helix pomatia. […] The extracts were derivatized with BSA/TMCS and TSIM and finally measured via GC–MS/MS with advanced electron ionization (AEI).\nThereby, RE,i is the renal excretion rate for the urine sample i (in µg/h), ci is the analyte concentration in the urine sample (in µg/L), Vi is the volume of the urine sample (in L) and ti and ti-1 are the elapsed time values (in h) of the sample and the previous sample, respectively.\nAfterwards, the time course of the excretion rates RE,i was recorded for the middle of the respective sampling period (ti,m in h) according to the equation: ti,m=ti-1+ti-ti-1/2.\nThe current excretion rates were plotted as a function of the average time of the respective sampling period for every volunteer and each analyte.\nFinally, mean excretion curves were calculated by taking the average of related urinary sampling times and the corresponding renal excretion rates (in µg/h) for all volunteers’ samples (arithmetic mean ± standard deviation). The mean cumulative excreted amount (in µmol) of all volunteers was obtained by addition of each molar excreted amount: ∑i=0nci×Vi/M.\nThereby, ci is the concentration of the metabolite in urine (in µg/L), Vi is the volume of the respective urine sample (in L) and M is the molar mass of the respective metabolite (in µg/µmol).\nAfterwards, excretion half-lives (t1/2) (in h) were ascertained as described in Sect. “Evaluation of blood kinetics” by plotting the current excretion rates as function of time."}, "[3]": {"assay": "Shares of conjugated analytes in urine (analysis with and without β-glucuronidase/arylsulfatase hydrolysis)", "conditions": "urine of one volunteer", "description": "The analysis of urine samples was performed with and without hydrolysis for one volunteer to determine the shares of analytes conjugated with glucuronic acid or sulfate. Initially, urine samples were thawed, equilibrated to room temperature and homogenized using a vortex mixer. Afterwards, the Monovettes® were centrifuged for 2 min at 1600 g to sediment solid residue in the sample. 1 mL of the sample was transferred into a 15 mL conical tube (Sarstedt, Nümbrecht, Germany). Without hydrolysis, 1 mL of the urine samples was prepared with 200 μL of ammonium acetate buffer (1 mol/L, pH 6) and 10 μL of the internal standard mix solution. […] Finally, the calculated analyte excretion rates (see Sect. “Evaluation of renal elimination”) obtained with hydrolysis were correlated with the ones prepared without hydrolysis for every detected compound. A linear curve fit was applied to the plotted data points. The resulting slope of the regression line described the percentage of free and therefore unconjugated analyte.\nTherefore, urine samples of one volunteer were analyzed with and without addition of β-glucuronidase/arylsulfatase from Helix pomatia and incubation according to the standard procedure previously published (Denghel and Göen [2020]) (see Sect. “Analysis of urine samples without hydrolysis”)."}, "[4]": {"assay": "Medical laboratory values (liver, kidney, LDH, CK) of volunteers before, during and one week after oral exposure", "type": "in vivo, human", "conditions": "third subject, seven days after exposure; not attributed to the exposure by the investigators", "description": "Because of potential confounding effects on those liver and kidney laboratory parameters and their potential to indicate massive cell destruction, lactate dehydrogenase (LDH) and creatinine kinase (CK) were included in the medical blood work as well. All medical laboratory values were carried out by an accredited medical laboratory. Thus, initial pathological laboratory values for liver or kidney function were defined as further exclusion criteria for study participation. In case of occurrence of relevant pathological medical values for liver or kidney function during the ongoing study which could be attributable to the study exposure, no further subjects were to be included until further clarification, potentially leading to a full cessation of the whole study."}, "beagle dogs [5]": {"tested_on": "beagle dogs", "conditions": "ref US EPA [2009]; cited from earlier work"}, "animal studies": {"tested_on": "animal studies", "conditions": "oral exposure, ref CIBA-GEIGY [1978], Kim et al. [2011a]; cited from earlier work"}, "rats": {"tested_on": "rats", "conditions": "ref ECHA [2013], Geigy [1970], Til et al. [1968]; cited from earlier work"}, "beagle dogs [6]": {"tested_on": "beagle dogs", "conditions": "ref ECHA [2013], Geigy [1970], Til et al. [1968]; cited from earlier work"}, "[7]": {"conditions": "both sexes, human, in vivo, po, 0.3 mg/kg"}}}
{"smiles": "CCC(C)(C)c1cc(-n2nc3ccccc3n2)c(O)c(C(C)(C)CC)c1", "note": "[UV 328, 2-(2H-Benzotriazol-2-yl)-4,6-di-tert-pentylphenol]", "values": [{"measurement": "share of all detected parameters in blood", "setting": "[1]; blood samples 8 h after exposure, without hydrolysis, n = 3", "value": "95.2 ± 2.0", "unit": "%"}, {"measurement": "concentration at 24 h", "setting": "[1]; [7]", "value": "83.1 ± 54.2", "unit": "ng/mL"}, {"measurement": "concentration at 48 h", "setting": "[1]; [7]", "value": "29.1 ± 19.4", "unit": "ng/mL"}, {"measurement": "half-life", "setting": "[1]; both sexes, human, in vivo, po, 0.3 mg/kg, t1/2 (0–24 h) in blood", "value": 5.3, "unit": "h"}, {"measurement": "half-life", "setting": "[1]; both sexes, human, in vivo, po, 0.3 mg/kg, t1/2 (24–48 h) in blood", "value": 16.3, "unit": "h"}, {"measurement": "Cmax", "setting": "[1]; both sexes, human, whole blood, po, 0.3 mg/kg bw, human whole blood, oral 0.3 mg UV 328/kg body weight, mean ± SD, n = 3", "value": "736 ± 489", "unit": "ng/mL"}, {"measurement": "Tmax", "setting": "[1]; both sexes, human, whole blood, po, 0.3 mg/kg bw, human whole blood, oral 0.3 mg UV 328/kg body weight, n = 3, read-out: tmax in blood", "value": 8, "unit": "h"}, {"measurement": "cmax in blood", "setting": "[1]; human whole blood, oral 0.3 mg UV 328/kg body weight, mean ± SD, n = 3", "value": "736.2 ± 488.7", "unit": "µg/L"}, {"measurement": "REmax (maximum renal excretion rate)", "setting": "[2]; human urine with hydrolysis, oral 0.3 mg/kg bw, mean ± SD", "value": "0.013 ± 0.003", "unit": "µg/h"}, {"measurement": "share of cumulative amounts of all quantified analytes in urine", "setting": "[2]; urine with hydrolysis, cumulative within 72 h", "value": "1.0 ± 0.1", "unit": "%"}, {"measurement": "share excreted via urine without conjugation to glucuronic acid or sulfate", "setting": "[3]", "value": "about 84%"}, {"measurement": "slope of the linear regression line (excretion rates without vs with hydrolysis)", "setting": "[3]; slope = fraction of free analyte", "value": 0.84}, {"measurement": "CK value (creatinine kinase)", "setting": "[4]", "value": 6784, "unit": "U/L"}, {"measurement": "No Observed Adverse Effect Level (NOAEL)", "setting": "beagle dogs [5]", "value": 30, "unit": "mg UV 328/kg bw/day"}, {"measurement": "acute toxicity", "setting": "animal studies", "value": "No acute toxicity was observed"}, {"measurement": "toxicity after repeated oral administration", "setting": "rats", "value": "specific target organ toxicity to liver and kidneys"}, {"measurement": "toxicity after repeated oral administration", "setting": "beagle dogs [6]", "value": "specific target organ toxicity to liver and kidneys"}]}
